The text below walks through data of patent US7772255B2, “Method of treating tumors with azaxanthones” (Supratek Pharma, Inc., priority 2005, dated 2010).

Each structure is given as a SMILES string.

Data set [1] deals with colorectal cancer. As to the kind of experiment: Amlexanox in combination with irinotecan in colorectal cancer, first-line (Example 9). The class given is in vivo, human. The settings on record: amlexanox tablets orally plus irinotecan 350 mg/m^2 i.v. every 3 weeks, versus irinotecan alone. Here is the method: In this open label randomized multicenter study 150 patients with colorectal cancer who have tumors that cannot be completely removed by surgery are treated by administering irinotecan alone and 150 patients, with colorectal cancer who have tumors that cannot be completely removed by surgery, are treated with combination of irinotecan and 500 mg amlexanox daily with two amlexanox 250 mg tablets, prepared in Example 3, taken twice daily orally to provide a daily dose of […] of amlexanox. Irinotecan was administered to all of the patients at a dose of 350 mg/m^2 once every 3 weeks intravenously during the course of this study. […] In addition, in each of the treated patients, duration of overall response, time to overall response, duration of progression-free survival, overall clinical benefit rate, overall survival rate and quality of life are determined. […] The patients are evaluated by standard WHO and/or RECIST criteria for response and disease status at six week intervals. […] All of the patients during the evaluation period are evaluated by the measurement of the tumors, survival and determination of any progression of the disease in the patient. Stability is measured during each evaluation to determine if there is any increase in the size and amount of tumors from the proceeding period and if there is no subsequent appearance of any other malignancies in the patient. […]

The test system of data set [2] is metastatic (Stage III-IV) breast cancer. As to the kind of experiment: Amlexanox in women with metastatic breast cancer whose primary tumors are removed surgically (Example 7). The class given is in vivo, human. The settings on record: 500 mg orally twice a day; baseline until nine months after administration and follow-up. The method, then:
In this study, 44 women with metastatic (Stage III-IV) breast cancer whose primary tumors are removed surgically are treated by orally administering 500 mg amlexanox twice a day. The total dose, per patient, is 1,000 mg daily. Baseline assessments are performed at the start of the treatment (treated group) and these baseline results are compared with repeat assessments during various follow-up periods of this treatment. The treatment is conducted for at least ten consecutive days and it is continued further until substantial progression of the disease is noted. The study, which includes treatment of all patients and their follow-up, lasts for at least nine months or until disease progression in the last patient with responding or stable disease. […] In carrying out this study, the response rate and one year survival data for each of the patients in the treated group is determined and compared with an untreated group. […] If there is a delay of the substantial progression of the disease, then treatment is stopped when it is determined that substantial progression of the disease in that patient resumes. […] One week after the first administration of amlexanox, patients are clinically evaluated (adverse event review, concomitant medication and concurrent illness) and the following laboratory evaluations are conducted: hematology, blood chemistry and urinalysis. […]

Data set [3] relates to CSML100 cells. The data set is described as follows: CSML100 (murine mammary carcinoma) experimental metastasis model (Example 24). The class given is in vivo, mouse. To be noted: 100 mg/kg/day i.v., 10 daily injections. The method, then: Amlexanox solution for injections was prepared according to the Example 4. CSML100 cells were inoculated intravenously in 26 female A/J mice (6-7 weeks old). Animals were then divided randomly into two groups: 1) untreated control (n=16, saline) and 2) Amlexanox treated (n=10, 100 mg/kg/day, i.v.; 10 daily injections). The control group received i.v. injections with 5 ml/kg (volume/body weight) of saline, while Amlexanox was administrated intravenously daily with a dose of 100 mg/kg in a volume of 5 ml/kg. Treatment was started on the day following the day of tumor cell implantation and continued for 10 consecutive days. The animal body weight was recorded as an index of treatment toxicity during the experiment. From the day 10 after cell implantation, one animal in the control group was sacrificed every day to monitor the metastasis development. All remaining animals were sacrificed on the day 18 for routine metastasis inspection. Although all organs were routinely screened, metastatic formation was only found in the lungs. The metastatic colonies on the organ surface were enumerated immediately following the removal of the organ.
A maximum body weight loss in treated group was less than 10%. The data are expressed as mean±SEM for the number of metastatic sites on the lung surface.

As to `CC(C)c1ccc2oc3nc(N)c(C(=O)O)cc3c(=O)c2c1` [Amlexanox, 2-amino-7-isopropyl-1-azaxanthone-3-carboxylic acid], the “percentage of patients with beneficial results (overall response rate, progression-free survival, overall survival etc.)” value in data set [1] is “greater percentage of the patients in the group of patients treated with the amlexanox show beneficial results”. In addition, in data set [2], the “percentage of patients with little or no progression of the disease, compared to the non-treated group” value is reported as “greater percentage of the patients in the group of patients treated with the amlexanox show little or no progression of the disease”. In addition, the “Average of lung metastasis number per animal (sample number)” value in data set [3] (CSML100 cells i.v. in female A/J mice, day 18, mean±SEM) is reported as 18.8 ± 2.3 (9). Besides, in data set [3] (lung metastasis number, day 18), the “Treated/control × 100%” value worked out at 48.5%. In data set [3] (treated group, A/J mice), the “maximum body weight loss” value was “less than 10%”.
